Assays:
COVID-19 [1] = test: Kaplan-Meier survival of COVID-19 positive patients hospitalized at the Mayo Clinic, by drug cohort; format: in vivo, human
COVID-19 [2] = test: IL-6 level / ICU duration quadrants of COVID-19 ICU patients after therapeutic administration; format: in vivo, human; details: for patient count in quadrant Q2 / proportion of patients in quadrant Q2: Q2: ICU ≥15 days or deceased and IL-6 <10 pg/mL; for patients in Q3: Q3: ICU <15 d and IL-6 ≥10 pg/mL; for Proportion of Group − Proportion of Other: cohort vs patients not taking the drug class
Description: Four categories of patient IL-6 level/ICU stay length were defined (i.e. the 4 quadrants described in Table 2). For each drug class with at least 10 patients, and for each quadrant with nonzero number of patients, the proportion of patients in the quadrant out of those taking a drug from the class were compared to the proportion of patients in the quadrant out of those not taking a drug from the class. Fisher exact test was performed to compute p-values on these proportion comparisons. A Benjamini-Hochberg adjustment was also applied to these p-values for multiple hypotheses.
Because only 10 patients met the aforementioned criteria, 10 additional COVID positive, ICU patients who only had IL-6 measured post-corticosteroid administration were also examined. Their IL-6 levels were plotted against the duration of ICU stay (see FIG. 3). Similarly, patients who received tocilizumab (n=5), azithromycin (n=49), hydroxychloroquine (n=10), and antivirals (lopinavir-ritonavir and ribavirin, n=4) were also examined. Patients were grouped into the following four categories based on IL-6 level, ICU status, and mortality: • (Q1) ICU<15 d and IL-6<10 pg/mL, • (Q2) ICU≥15 d or deceased and IL-6<10 pg/mL, • (Q3) ICU<15 d and IL-6≥10 pg/mL, and • (Q4) ICU≥15 d or deceased and IL-6≥10 pg/mL. […] As a corollary, corticosteroids have fewer patients (30%, n=20) in Q3 compared to tocilizumab (80%, n=5), azithromycin (61%, n=49), and hydroxychloroquine (60%, n=10). (See Table 2)

[3] = COVID-19 patients requiring ICU admission
[4] = all hospitalized COVID-19 patients
[5] = Q1: ICU <15 days and IL-6 <10 pg/mL
[6] = Q3: ICU <15 days and IL-6 ≥10 pg/mL
[7] = Q4: ICU ≥15 days or deceased and IL-6 ≥10 pg/mL

Row | Compound | survival rate at 60 days post-diagnosis (COVID-19 [1]; [3]) [%] | survival rate at 60 days post-diagnosis (COVID-19 [1]; [4]) [%] | patient count in quadrant Q1 (COVID-19 [2]; [5]) | patient count in quadrant Q2 (COVID-19 [2]) | proportion of patients in quadrant Q2 (COVID-19 [2]) | patients in Q3 (COVID-19 [2]) [%] | patient count in quadrant Q3 (COVID-19 [2]; [6]) | patient count in quadrant Q4 (COVID-19 [2]; [7]) | further results
1 | CC[C@H]1OC(=O)[C@H](C)[C@@H](O[C@H]2C[C@@](C)(OC)[C@@H](O)[C@H](C)O2)[C@H](C)[C@@H](O[C@@H]2O[C@H](C)C[C@H](N(C)C)[C@H]2O)[C@](C)(O)C[C@@H](C)CN(C)[C@H](C)[C@@H](O)[C@]1(C)O [azithromycin] | 92 | 93 | 4 | 0 | (0) | 61 | 30 | 15 | Proportion of Group − Proportion of Other (COVID-19 [2]; quadrant Q1): −0.10; Proportion of Group − Proportion of Other (COVID-19 [2]; quadrant Q3): 0.17; Proportion of Group − Proportion of Other (COVID-19 [2]; quadrant Q4): −0.07
2 | C[C@]12CCC(=O)C=C1CC[C@@H]1[C@@H]2[C@@H](O)C[C@@]2(C)[C@H]1CC[C@]2(O)C(=O)CO [hydrocortisone] |  | 79 |  |  |  |  |  |  | 
3 | C[C@@H]1C[C@H]2[C@@H]3CCC4=CC(=O)C=C[C@]4(C)[C@@]3(F)[C@@H](O)C[C@]2(C)[C@@]1(O)C(=O)CO [dexamethasone] | 72 | 90 |  |  |  |  |  |  | 
4 | tocilizumab |  |  | 0 | 0 | (0) | 80 | 4 | 1 | survival 60 days post diagnosis (in words) (COVID-19 [1]; hospitalized COVID-19 patients): all 11 hospitalized patients receiving tocilizumab survived; proportion of patients in quadrant Q1 (COVID-19 [2]; [5]): (0); proportion of patients in quadrant Q3 (COVID-19 [2]; [6]): (0.8); proportion of patients in quadrant Q4 (COVID-19 [2]; [7]): (0.2)
5 | C[C@H]1C[C@@H]2[C@H]([C@@H](O)C[C@@]3(C)[C@H]2CC[C@]3(O)C(=O)CO)[C@@]2(C)C=CC(=O)C=C12 [methylprednisolone] |  |  |  |  |  |  |  |  | survival rate at 60 days post-diagnosis (COVID-19 [1]; human, in vivo): 77%
6 | C[C@]12C=CC(=O)C=C1CC[C@@H]1[C@@H]2C(=O)C[C@@]2(C)[C@H]1CC[C@]2(O)C(=O)CO [prednisone] |  | 92 |  |  |  |  |  |  | 
7 | CCN(CCO)CCCC(C)Nc1ccnc2cc(Cl)ccc12 (stereo not drawn) [hydroxychloroquine] | 100 |  | 2 | 0 | (0) | 60 | 6 | 2 | Proportion of Group − Proportion of Other (COVID-19 [2]; quadrant Q1): 0.08; Proportion of Group − Proportion of Other (COVID-19 [2]; quadrant Q3): 0.05; Proportion of Group − Proportion of Other (COVID-19 [2]; quadrant Q4): −0.13
